From patent US20080318977A1, “Condensed Pyridines as Kinase Inhibitors” (Palau Pharma, S.A., priority 2004, published 2008)

Molecular target: T1, p38α (Homo sapiens, UniProt Q16539)
T1 construct: GST-tagged fusion protein corresponding to full-length human p38α; purchased Upstate 14-251; host or cells: E. coli
Assay: Inhibition of p38α enzyme activity (IMAP fluorescence polarisation kinase assay)
Format: biochemical
Settings: at 1 μM compound; ATP 20 μM; 2 h at RT
Description: Inhibition of p38α Enzyme Activity:
Compound stocks in 100% DMSO are first diluted in DMSO to a concentration of 1×10^−3 up to 3.2×10^−8 M and then further diluted in kinase assay buffer (10 mM Tris-HCl, pH 7.2, 10 mM MgCl2, 0.01% tween 20, 0.05% NaN3, 1 mM dithiothreitol) to a concentration range of 4×10^−5 up to 1.3×10^−9 M. Of each compound solution 5 μL is transferred into a 384-wells black Optiplate (Packard, 6007279), followed by the addition of 5 μL of ATP (Boehringer, 519987), 5 μL of Fluorescein-labeled EGFR (Epidermal Growth Factor Receptor) peptide substrate and 5 μL of active p38 cc kinase (GST-tagged fusion protein corresponding to full-length human p38α; expressed in E. coli by Upstate, 14-251), all diluted in kinase assay buffer (see final concentrations in Table 1). The mixture is incubated for 2 h at room temperature (RT). The reaction is stopped by the addition of 60 μL of IMAP binding reagent, which has been diluted 400-fold in IMAP binding buffer (stock concentration 5 times diluted in Milli Q). After incubation for 30 min at RT, FP is measured on an Analyst™ multimode fluorescence plate reader (Molecular Devices) at excitation wavelength of 485 nm and emission wavelength of 530 nm (1 sec/well).
Data handling is performed as follows: percentage effects are calculated based on no-p38-enzyme-addition as the maximum inhibitory effect and with p38 enzyme addition as the minimum inhibitory effect. In each experiment, individual compound concentrations are tested in duplicate and percentage effect is calculated for each concentration.

T1 sequence (Q16539 whole entry, the tested form may be a part): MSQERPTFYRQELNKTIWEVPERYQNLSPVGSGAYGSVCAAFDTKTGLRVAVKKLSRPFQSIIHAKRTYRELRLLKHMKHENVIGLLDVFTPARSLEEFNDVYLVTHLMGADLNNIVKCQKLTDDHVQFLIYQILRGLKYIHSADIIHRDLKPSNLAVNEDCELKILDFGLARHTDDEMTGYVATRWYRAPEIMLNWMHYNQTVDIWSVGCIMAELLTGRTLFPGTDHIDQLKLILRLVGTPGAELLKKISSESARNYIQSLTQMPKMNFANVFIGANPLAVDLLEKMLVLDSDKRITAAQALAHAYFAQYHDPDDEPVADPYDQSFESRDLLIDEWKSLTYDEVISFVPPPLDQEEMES

Question: Which inhibition at 1 µM does the source give for `COC(=O)c1cc2c(-c3ccc(F)cc3)c(-c3ccncc3)c(-c3ccc(F)cc3)nc2o1` [Example 2, Methyl 4,6-bis(4-fluorophenyl)-5-(4-pyridyl)furo[2,3-b]pyridine-2-carboxylate] here?
Answer: > 50%

Question: Which inhibition at 1 µM does the source give for `COC(=O)c1cc2nc(-c3ccc(F)cc3)c(-c3ccncc3)c(-c3ccc(F)cc3)c2n1C` [Example 3, Methyl 5,7-bis(4-fluorophenyl)-1-methyl-6-(4-pyridyl)pyrrolo[3,2-b]pyridine-2-carboxylate] here?
Answer: > 50%

Question: For `CCOC(=O)c1nc2nc(-c3ccc(F)cc3)c(-c3ccncc3)c(-c3ccc(F)cc3)c2n1C` [Example 5, Ethyl 5,7-bis(4-fluorophenyl)-1-methyl-6-(4-pyridyl)imidazo[4,5-b]pyridine-2-carboxylate], which inhibition at 1 µM is on record?
Answer: > 50%

Question: Which inhibition at 1 µM does the source give for `Cn1c(CO)cc2nc(-c3ccc(F)cc3)c(-c3ccncc3)c(-c3ccc(F)cc3)c21` [Example 6, [5,7-Bis(4-fluorophenyl)-1-methyl-6-(4-pyridyl)pyrrolo[3,2-b]pyridin-2-yl]methanol] here?
Answer: > 50%

Question: With `Cn1c(CO)nc2nc(-c3ccc(F)cc3)c(-c3ccncc3)c(-c3ccc(F)cc3)c21` [Example 7, [5,7-Bis(4-fluorophenyl)-1-methyl-6-(4-pyridyl)imidazo[4,5-b]pyridin-2-yl]methanol] as the compound, how does the inhibition at 1 µM read?
Answer: > 50%

Question: For `Cn1cnc2nc(-c3ccc(F)cc3)c(-c3ccncc3)c(-c3ccc(F)cc3)c21` [Example 10, 5,7-Bis(4-fluorophenyl)-1-methyl-6-(4-pyridyl)imidazo[4,5-b]pyridine], which inhibition at 1 µM is on record?
Answer: > 50%

Question: With `Cn1c(C(N)=O)cc2nc(-c3ccc(F)cc3)c(-c3ccncc3)c(-c3ccc(F)cc3)c21` [Example 12, 5,7-Bis(4-fluorophenyl)-1-methyl-6-(4-pyridyl)pyrrolo[3,2-b]pyridine-2-carboxamide] as the compound, how does the inhibition at 1 µM read?
Answer: > 50%

Question: With `Cn1c(C(=O)NCCO)cc2nc(-c3ccc(F)cc3)c(-c3ccncc3)c(-c3ccc(F)cc3)c21` [Example 13, 5,7-Bis(4-fluorophenyl)-N-(2-hydroxyethyl)-1-methyl-6-(4-pyridyl)pyrrolo[3,2-b]pyridine-2-carboxamide] as the compound, how does the inhibition at 1 µM read?
Answer: > 50%

Question: How did the inhibition at 1 µM turn out when `Cn1c(C(=O)N2CCOCC2)cc2nc(-c3ccc(F)cc3)c(-c3ccncc3)c(-c3ccc(F)cc3)c21` [Example 14, [5,7-Bis(4-fluorophenyl)-1-methyl-6-(4-pyridyl)pyrrolo[3,2-b]pyridin-2-yl]morpholin-4-ylmethanone] was run?
Answer: > 50%

Question: `CC(C)(O)c1cc2c(-c3ccc(F)cc3)c(-c3ccncc3)c(-c3ccc(F)cc3)nc2o1` [Example 16, 2-[4,6-Bis-(4-fluorophenyl)-5-(4-pyridyl)furo[2,3-b]pyridin-2-yl]propan-2-ol] was tested. Which inhibition at 1 µM did it give?
Answer: > 50%

Question: How did the inhibition at 1 µM turn out when `Cn1c(C(C)(C)O)nc2nc(-c3ccc(F)cc3)c(-c3ccncc3)c(-c3ccc(F)cc3)c21` [Example 18, 2-[5,7-Bis(4-fluorophenyl)-1-methyl-6-(4-pyridyl)imidazo[4,5-b]pyridin-2-yl]propan-2-ol] was run?
Answer: > 50%

Question: Which inhibition at 1 µM does the source give for `CC(=O)c1nc2nc(-c3ccc(F)cc3)c(-c3ccncc3)c(-c3ccc(F)cc3)c2n1C` [Example 19, 1-[5,7-Bis(4-fluorophenyl)-1-methyl-6-(4-pyridyl)imidazo[4,5-b]pyridin-2-yl]ethanone] here?
Answer: > 50%

Question: With `Cn1c(C(C)(C)O)cc2nc(-c3ccc(F)cc3)c(-c3ccncc3)c(-c3ccc(F)cc3)c21` [Example 20, 2-[5,7-Bis(4-fluorophenyl)-1-methyl-6-(4-pyridyl)pyrrolo[3,2-b]pyridin-2-yl]propan-2-ol] as the compound, how does the inhibition at 1 µM read?
Answer: > 50%

Question: With `CC(=O)c1cc2nc(-c3ccc(F)cc3)c(-c3ccncc3)c(-c3ccc(F)cc3)c2n1C` [Example 21, 1-[5,7-Bis(4-fluorophenyl)-1-methyl-6-(4-pyridyl)pyrrolo[3,2-b]pyridin-2-yl]ethanone] as the compound, how does the inhibition at 1 µM read?
Answer: > 50%

Question: How did the inhibition at 1 µM turn out when `OCc1cc2c(-c3ccc(F)cc3)c(-c3ccncc3)c(-c3ccc(F)cc3)nc2o1` [Example 22, [4,6-Bis(4-fluorophenyl)-5-(4-pyridyl)furo[2,3-b]pyridin-2-yl]methanol] was run?
Answer: > 50%

Question: How did the inhibition at 1 µM turn out when `O=C(NCCN1CCOCC1)c1cc2c(-c3ccc(F)cc3)c(-c3ccncc3)c(-c3ccc(F)cc3)nc2o1` [Example 25, 4,6-Bis-(4-fluoro-phenyl)-5-pyridin-4-yl-furo[2,3-b]pyridine-2-carboxylic acid (2-morpholin-4-yl-ethyl)-amide] was run?
Answer: > 50%

Question: How did the inhibition at 1 µM turn out when `O=C(NCCN1CCCCC1)c1cc2c(-c3ccc(F)cc3)c(-c3ccncc3)c(-c3ccc(F)cc3)nc2o1` [Example 26, 4,6-Bis-(4-fluoro-phenyl)-5-pyridin-4-yl-furo[2,3-b]pyridine-2-carboxylic acid (2-piperidin-1-yl-ethyl)-amide] was run?
Answer: > 50%

Question: For `O=C(NCCO)c1cc2c(-c3ccc(F)cc3)c(-c3ccncc3)c(-c3ccc(F)cc3)nc2o1` [Example 27, 4,6-Bis-(4-fluoro-phenyl)-5-pyridin-4-yl-furo[2,3-b]pyridine-2-carboxylic acid (2-hydroxy-ethyl)-amide], which inhibition at 1 µM is on record?
Answer: > 50%

Question: With `COCCNC(=O)c1cc2nc(-c3ccc(F)cc3)c(-c3ccncc3)c(-c3ccc(F)cc3)c2n1C` [Example 28, 5,7-Bis-(4-fluoro-phenyl)-1-methyl-6-pyridin-4-yl-1H-pyrrolo[3,2-b]pyridine-2-carboxylic acid (2-methoxy-ethyl)-amide] as the compound, how does the inhibition at 1 µM read?
Answer: > 50%

Question: How did the inhibition at 1 µM turn out when `CCCNC(=O)c1cc2nc(-c3ccc(F)cc3)c(-c3ccncc3)c(-c3ccc(F)cc3)c2n1C` [Example 29, 5,7-Bis-(4-fluoro-phenyl)-1-methyl-6-pyridin-4-yl-1H-pyrrolo[3,2-b]pyridine-2-carboxylic acid propylamide] was run?
Answer: > 50%

Question: How did the inhibition at 1 µM turn out when `Cn1c(C(=O)NCCN2CCOCC2)cc2nc(-c3ccc(F)cc3)c(-c3ccncc3)c(-c3ccc(F)cc3)c21` [Example 30, 5,7-Bis-(4-fluoro-phenyl)-1-methyl-6-pyridin-4-yl-1H-pyrrolo[3,2-b]pyridine-2-carboxylic acid (2-morpholin-4-yl-ethyl)-amide] was run?
Answer: > 50%

Question: `Cn1c(C(=O)NCCN2CCCCC2)cc2nc(-c3ccc(F)cc3)c(-c3ccncc3)c(-c3ccc(F)cc3)c21` [Example 31, 5,7-Bis-(4-fluoro-phenyl)-1-methyl-6-pyridin-4-yl-1H-pyrrolo[3,2-b]pyridine-2-carboxylic acid (2-piperidin-1-yl-ethyl)-amide] was tested. Which inhibition at 1 µM did it give?
Answer: > 50%

Question: `COCCNCc1cc2nc(-c3ccc(F)cc3)c(-c3ccncc3)c(-c3ccc(F)cc3)c2n1C` [Example 32, [5,7-Bis-(4-fluoro-phenyl)-1-methyl-6-pyridin-4-yl-1H-pyrrolo[3,2-b]pyridin-2-ylmethyl]-(2-methoxy-ethyl)-amine] was tested. Which inhibition at 1 µM did it give?
Answer: > 50%

Question: Which inhibition at 1 µM does the source give for `Cn1c(CNCC2CC2)cc2nc(-c3ccc(F)cc3)c(-c3ccncc3)c(-c3ccc(F)cc3)c21` [Example 33, [5,7-Bis-(4-fluoro-phenyl)-1-methyl-6-pyridin-4-yl-1H-pyrrolo[3,2-b]pyridin-2-ylmethyl]-cyclopropylmethyl-amine] here?
Answer: > 50%

Question: For `COC(=O)CNCc1cc2nc(-c3ccc(F)cc3)c(-c3ccncc3)c(-c3ccc(F)cc3)c2n1C` [Example 34, {[5,7-Bis-(4-fluoro-phenyl)-1-methyl-6-pyridin-4-yl-1H-pyrrolo[3,2-b]pyridin-2-ylmethyl]-amino}-acetic acid methyl ester], which inhibition at 1 µM is on record?
Answer: > 50%
